Source: the COVID Moonshot data (paper PMC11187573), “Identification of SARS-CoV-2 Mpro inhibitors through deep reinforcement learning for de novo drug design and computational chemistry approaches” (RSC Medicinal Chemistry, 2024)

Columns and labels:
[1] = molecular target: SARS-CoV-2 Main Protease (SARS-CoV-2) (UniProt P0DTD1)
[2] = molecular target: SARS-CoV-2 Main Protease (SARS-CoV-2) (UniProt P0DTD1); remark: listed apart in the source

Compound	IC50 [1]	inhibition ([1]; 50.0 µM)	relative solubility at 20 uM	relative solubility at 100 uM	inhibition ([2]; 20.0 µM)	inhibition ([2]; 50.0 µM)	inhibition ([1]; 20.0 µM)
O=C(Cc1cccc(Cl)c1)Nn1cnc2ccccc21	4270 nM	45.3%	1	1	74.2%	87.7%	–
Cc1noc(C)c1CS(=O)(=O)Cc1cccc(Cl)c1	–	0%	0.99	1	1.07%	-0.0149%	–
C=CC(=O)N(c1ccc(S(F)(F)(F)(F)F)cc1)C(C(=O)Nc1ccc(OC)cc1)c1cccnc1 (stereo not drawn)	–	–	0.83	0.71	15.7%	30.6%	10.4%
O=C(NCc1cnccn1)c1sc2cccc(F)c2c1COc1ccccc1	–	-0.855%	0.95	0.44	-1.73%	6.32%	0%
O=C(Nc1cnccc1Cl)c1cccc(Cl)c1	–	10.5%	1	1	-2.3%	3.23%	0%
Cc1ccncc1Cn1ccccc1=O	–	6.5%	1	1	3.62%	7.02%	–
COc1ccccc1OC1CCCN(C(=O)c2cc(=O)[nH]c3ccc(Cl)cc23)C1 (stereo not drawn)	–	0%	0.99	0.93	-0.617%	5.27%	–
Nc1ncc(S(=O)(=O)NCc2cccc(Cl)c2)cn1	–	6.76%	1	0.97	5.4%	-6.16%	–
O=C(Cc1cccnc1Cl)Nc1cccc(OCCc2ccccc2)c1	–	5.03%	0.81	0.27	1.54%	6.9%	0%
O=C(NCc1cnn2ccccc12)c1cccnc1OCCO	–	0%	1	1.01	-18.2%	-28.9%	0%
COc1ccccc1OC(C)CNC(=O)c1cc(=O)[nH]c2cc(F)ccc12 (stereo not drawn)	–	5.65%	1	0.99	20%	59%	–
O=C(Cc1ccccc1)Nc1cccc(OC2CC(=O)N2)c1 (stereo not drawn)	–	0%	1	1	-2.28%	-0.808%	–
O=C(NCc1cncs1)Nc1cccc(N2CCOCC2)c1	–	23.8%	1	1.01	5.65%	13.6%	0.672%
Cc1ccncc1-c1nnc(-c2cccc(Cl)c2)o1	–	0.631%	1	0.99	1.73%	13.8%	–
C=CC(=O)NCC(=O)N(CCN1CCOCC1)Cc1ccccc1Cl	–	0%	1	1	-18.3%	-19.7%	0%
O=C(CCl)N1CC2CC1CN2Cc1cccc(Cl)c1 (stereo not drawn)	655 nM	100%	0.99	1	82.2%	72.7%	100%
C=CC(=O)N(c1cc(C(C)(C)C)on1)C(C(=O)Nc1c(C)cccc1CC)c1cccnc1 (stereo not drawn)	–	–	0.99	0.9	7.33%	21.1%	1.49%
CN(C)C/C=C/C(=O)NCc1c[nH]c2ccccc12	–	–	0.96	0.98	3.86%	0.744%	0%
C=CC(=O)N(c1ccc(C(C)(C)C)cc1)C(C(=O)NCCc1cccc(F)c1)c1cncc(Cl)c1 (stereo not drawn)	2110 nM	60.6%	0.71	0.32	24.2%	57.9%	–
C=CC(=O)N(c1ccc(C(C)(C)C)cc1)C(C(=O)NCCC(=O)OCC)c1cccnc1 (stereo not drawn)	–	43.7%	0.99	0.97	27.8%	46.3%	12.3%
C=CC(=O)N(c1ccc(C(C)(C)C)cc1)C(C(=O)NC(C)(C)C)c1cncc(OCC)c1 (stereo not drawn)	–	15%	0.99	0.89	-1.87%	2.59%	-0.816%
NS(=O)(=O)c1ccc(N2CCC(c3nc4ccccc4s3)CC2)cc1	–	–	0.76	0.52	-11.9%	-12%	0%
COc1ccc(S(=O)(=O)N2CCN(C(=O)c3cc(=O)[nH]c4cc(F)ccc34)CC2)cc1	–	0%	0.87	0.9	5.98%	-3.27%	–
O=C(NCc1ccno1)c1ccccc1Oc1ccc(Cl)cc1Cl	–	0%	1	0.96	-13%	-12.4%	0%
